Measured values from US20250177412A1, “SMALL-MOLECULE INHIBITORS TARGETING THE BOB1/OCT1 INTERFACE” (NANTES UNIVERSITE, priority 2022, published 2025).

Columns and labels:
[1] = tested on: PBMCs; experiment: T cell recall assay (qPCR and intracellular staining); format: cell-based, human
Experimental: Total PBMCs were plated into 96-well round-bottom plates at 0.5×10^6 cells/well and were stimulated with anti-CD3/CD28 Dynabeads (Gibco Life Technologies) at a bead/cell ratio of 0.2:1 in the presence of compound 005 (10 μM) or vehicle (DMSO) for 6 hours to induce polyclonal primary responses. To induce recall responses, cells were stimulated with beads for two days, allowed to rest for eight days in medium supplemented with IL-2 (10 U/mL) and re-stimulated with anti-CD3/CD28 beads for the last 6 hours in the presence of compound 005 ([…]) or vehicle. Expression of Th1-, Th2-, Th17-, and Treg-associated cytokines and transcription factors was assessed by qPCR. For intracellular staining, cells were re-stimulated for 10 hours with anti-CD3/CD28 beads, and Brefeldin A (10 μg/mL, Sigma) was added to the medium 4 hours after the start of re-stimulation. Dead cells were excluded using the LIVE/DEAD® Fixable Aqua Dead Cell Stain Kit (Life Technologies). Subsequently, cells were surface-stained with CD3-BUV395, CD4-BUV737, CD8-Violet650 (all three from BDHorizon), and CD161-PE-Cy7 (from Biolegend) at 4° C. for 30 min, followed by incubation with Fixation/Permeabilization working solution (eBioscience), washed with Permeabilization Buffer and stained with IL-17A-PE and IFNγ-BV711 (both from BD Biosciences). Cells were resuspended in ice-cold FACS buffer (0.5% BSA, 2 mM EDTA and 50 U/mL penicillin/streptomycin in PBS). Flow cytometry data were collected on BD FACSCelesta™ and analyzed using FlowJo™ cell analysis software (FlowJo, LLC).
Total RNA was extracted from PBMCs using the RNeasy Micro Kit (Qiagen) according to the manufacturer's protocol. RNA was processed for cDNA synthesis (Fermentas) and analyzed by qPCR with TaqMan gene expression assays for IFNG (Hs00989291_m1), IL-2 (Hs00174114_m1), TNF (Hs00174128_m1), TBX21 (Hs00203436_m1), IL-4 (Hs00174122_m1), GATA3 (Hs00231122_m1), IL-17A (Hs00174383_m1), IL-17F (Hs00369400_m1), IL-21 (Hs00222327_m1), IL-22 (Hs01574154_m1), RORC (Hs01076122_m1), IL-10 (Hs00961622_m1), FOXP3 (Hs01085834_m1), POU2AF1 (Hs01573371_m1) (Thermofisher) using Real-Time PCR QuantStudio3 PCR System (Applied Biosystems). Expressions of all genes were normalized to the expression of GAPDH (4310884E) as housekeeping gene and presented as fold change relative to the reference sample.

[2] = tested on: BOB1/OCT1-mediated transcription; experiment: Luciferase reporter assay (transient transfection, 6xPORE-luc); format: cell-based, human
Experimental: FIGS. 1A-C are a combination of graphs showing that compound 005 inhibits BOB1/OCT1-mediated transcription in vitro. HEC293Ea1 cells, known to express endogenous OCT1, were co-transfected with […] reporter, pEV-OBF1 (BOB1) effector, and pCMV-β-gal calibrator plasmids. Luciferase and β-galactosidase activities were measured 48 hours after transfection. The 100% luciferase activity was set as activity in presence of vehicle (10 μM DMSO). […] All experiments are performed at least in triplicates. Bars indicate the mean±SEM. * P<0.05, ** P<0.01, *** P<0.001, **** P<0.0001.
The HEK293E1a cells were seeded at density 1.2×10^4 per well on 48-well plate in DMEM medium containing 10% fetal calf serum. After 24 hours cells were transfected with plasmid mix (300 ng/well) containing specified amounts of the p6×PORE-luc reporter, pEV-OBF1 and pCG-Oct1 effector, pBluescript II KS+ carrier, and pCMV-βgal (for standardization) as previously described. The transfections were carried out in three biological replicates, using Polyethylenimine (PEI 25K, Polysciences Inc.) at the ratio 2:1 to DNA. After 48 hours, cells were washed with PBS, lysed, and measured for luciferase activity, using the Bright-Glo luciferase assay system (Promega), and for β-galactosidase activity in a standard assay.
BOB1 has been described as a coactivator acting in cooperation with the POU-domain proteins OCT1 and OCT2 bound to distinct DNA-motifs either in monomeric or dimeric configurations. […] As an initial functional assay, we examined the ability of the compounds according to the present invention to affect BOB1-OCT1-PORE-mediated transcriptional activation in transient transfection luciferase assay. To this end, we made use of previously generated 6×PORE-luc and reporter plasmid, in which hexamers of the PORE were cloned upstream of the thymidine kinase (tk) minimal promoter and luciferase gene. […] Furthermore, the addition of a plasmid expressing exogenous OCT1 exerted an inhibitory effect on both basal and BOB1-mediated transcription (data not shown). This observation is likely due to the fact that HEK293 cells, like all other mammalian cell types, express OCT1, and further addition of exogenous OCT1 in these cells shifts the BOB1/OCT1 equilibrium out of optimal range, resulting in squelching effect, and in our experimental setup, in about 3-fold stimulation, as compared to that by endogenous OCT1 alone (FIG. 1A). […] Compound 005 was selected for further detailed investigation.

Cc1ccc(NC(=O)C2CN(c3nc(NCCCc4ccc(F)cc4)nc(NCCC(=O)O)n3)c3ccccc3O2)cc1Cl (stereo not drawn) [compound 005, 3-((4-(2-((3-chloro-4-methylphenyl)carbamoyl)-2,3-dihydro-4H-benzo[b][1,4]oxazin-4-yl)-6-((3-(4-fluorophenyl)propyl)amino)-1,3,5-triazin-2-yl)amino)propanoic acid]
TNF expression ([1]; initial activation, 6 hours-stimulated cells, 10 μM, data not shown): significant decrease
IL-17A mRNA, median percentage decrease ([1]; re-stimulated (recall) cells): 43%
IL-17F mRNA, median percentage decrease ([1]; re-stimulated (recall) cells): 27%
expression of IL-17A by CD4+ T cells (protein, intracellular staining) ([1]; re-stimulated cells): suppressed
BOB1/OCT1-driven transcription (relative luciferase activity) ([2]; 10 μM in the culture medium): significantly attenuated
suppression of transcriptional activation ([2]; concentration range from 0.5 to 40 μM): dose-dependent manner
